In brackets after ≈: the same amount, converted by molar mass.
Tested on: KB
Assay: Cytotoxicity against human KB cells
Format: functional
Details: read-out: ED50 (the source's name)

## O=C1c2ccccc2C(=O)c2c1ccc(CO)c2O [DIGIFERRUGINOL]
  EC50: 0.09 µg/mL (≈ 0.354 µM)

Source: ChEMBL document CHEMBL1151664, “Antitumor agents, 75. Synthesis of cytotoxic anthraquinones digiferruginol and morindaparvin-B” (1985)
